Legend:
Assay type in all cases: cell-based
[1] = test system: human breast cancer cell line T-47D; experiment: Inhibition of cell proliferation (GI50), T47D; conditions: Homo sapiens; T47D cells, 48 h, CellTiter-Glo
Procedure: (§1) Human breast cancer cell lines T-47D, human hepatocellular carcinoma cell line SNU398, human colon carcinoma cell line HCT116, human lung cancer cell line H1299, human leukemia cell line K562, human lymphoma cell line Raji, human B cell lymphoblastoid cell line Ramos, and human Burkitt's lymphoma cell line Namalwa were grown and harvested as in Example 100. An aliquot of […] of cells (4.4×10^4 cells/mL) was added to a well of a 96-well microtiter plate containing 5 μL of a 10% DMSO in RPMI-1640 media solution containing 10 nM to 100 μM of 3-(2-chlorophenyl)-6-(3,4-methylenedioxyphenyl)-7H-[1,2,4]triazolo[3,4-b][1,3,4]thiadiazine (1 nM to 10 μM final). An aliquot of 45 μL of cells was added to a well of a 96-well microtiter plate containing 5 μL of a 10% DMSO in RPMI-1640 media solution without compound as the control sample for maximal cell proliferation (LMax). The samples were mixed by agitation and then incubated at 37° C. for 48 h in a 5% CO2-95% humidity incubator. After incubation, the samples were removed from the incubator and 25 μL of CellTiter-Glo™ reagent (Promega) was added. The samples were mixed by agitation and incubated at room temperature for 10-15 min. Plates were then read using a luminescent plate reader (Model SPECTRAfluor Plus, Tecan) to give Ltest values.
(§2) The samples were mixed by agitation and then incubated at 37° C. for 0.5 h in a 5% CO2-95% humidity incubator. After incubation, the samples were removed from the incubator and 25 μL of CellTiter-Glo™ reagent (Promega) was added. The samples were mixed by agitation and incubated at […] 10-15 min at room temperature in a 5% CO2-95% humidity incubator. Fluorescence was read as above, (LStart) defining luminescence for initial cell number used as baseline in GI50 determinations.
(§3) Calculation: GI50 (dose for 50% inhibition of cell proliferation) is the concentration where [(Ltest−LStart)/(LMax−LStart)]=0.5.

[2] = test system: human colon carcinoma cell line HCT116; experiment: Inhibition of cell proliferation (GI50), HCT116; conditions: Homo sapiens; HCT 116 cells, 48 h, CellTiter-Glo
In short: (§4)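 Seed 4.4×10^4 cells/mL onto compound dilutions (final 1 nM to 10 μM). Incubate 48 h, 37 °C, 5% CO2. Add CellTiter-Glo, read luminescence. Compute GI50 from test signal normalised between 0.5 h starting signal and untreated control.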

[3] = test system: human hepatocellular carcinoma cell line SNU398; experiment: Caspase cascade activation (EC50), SNU398; conditions: Homo sapiens, SNU-398; SNU398 cells; caspase cascade activation; read-out: caspase potency (EC50) SNU398
In short: (§5)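 Test compound (0.016–10 μM final) is incubated with cells for 48 h at 37 °C. Caspase-3-like activity is measured by 3 h room-temperature cleavage of DEVD-R110 in PIPES pH 7.2 lysis buffer, with EC50 from sigmoidal fitting of background-corrected RFU relative to control.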

[4] = test system: human breast cancer cell line T-47D; experiment: Caspase cascade activation (EC50), T-47D; conditions: Homo sapiens; T47D cells; caspase cascade activation; read-out: caspase potency (EC50) T47D
In short: as §5

[5] = test system: human hepatocellular carcinoma cell line SNU398; experiment: Inhibition of cell proliferation (GI50), SNU398; conditions: Homo sapiens; SNU 398 cells, 48 h, CellTiter-Glo
Procedure: as §1, §2, §3

[6] = test system: human Burkitt's lymphoma cell line Namalwa; experiment: Caspase cascade activation (EC50), Namalwa; conditions: Homo sapiens, Burkitts lymphoma cell; Namalwa cells; caspase cascade activation; read-out: caspase potency (EC50) Namalwa
In short: as §5

[7] = test system: human Burkitt's lymphoma cell line Namalwa; experiment: Inhibition of cell proliferation (GI50), Namalwa; conditions: Homo sapiens, Burkitts lymphoma cell; Namalwa cells, 48 h, CellTiter-Glo
In short: as §4

[8] = test system: human colon carcinoma cell line HCT116; experiment: Caspase cascade activation (EC50), HCT116; conditions: Homo sapiens, HCT-116; HCT116 cells; caspase cascade activation; read-out: caspase potency (EC50) HCT116
In short: as §5

Row | GI50 [1] [nM] | GI50 [2] [nM] | EC50 [3] [nM] | EC50 [4] [nM] | GI50 [5] [nM] | EC50 [6] [nM] | GI50 [7] [nM] | EC50 [8] [nM] | SMILES
1 | 288 | 482 | 488 | 335 | 121 | 316 | 433 | 753 | COc1ccccc1-c1nnc2n1N=C(c1ccc(OC)c(OC)c1OC)CS2 [Example 42, 6-(2,3,4-Trimethoxyphenyl)-3-(2-methoxyphenyl)-7H-[1,2,4]triazolo[3,4-b][1,3,4]thiadiazine]
2 | 34 | 40 | 17 | 35 | 13 | 15 | 64 | 25 | COc1ccccc1-c1nnc2n1N=C(c1ccc3c(c1)OCCO3)CS2 [Example 43, 6-(2,3-Dihydrobenzo[b][1,4]dioxin-6-yl)-3-(2-methoxyphenyl)-7H-[1,2,4]triazolo[3,4-b][1,3,4]thiadiazine]
3 | 12 | 8 | 17 | 43 | 10 | 11 | 13 | 19 | COc1ccc(C2=Nn3c(nnc3-c3ccccc3OC)SC2)cc1 [Example 46, 3-(2-Methoxyphenyl)-6-(4-methoxyphenyl)-7H-[1,2,4]triazolo[3,4-b][1,3,4]thiadiazine]
4 | 3020 | 3000 | 2740 | 2330 | 1220 | 4790 | 1480 | 5540 | COc1ccccc1-c1nnc2n1N=C(c1ccc3[nH]c(=O)oc3c1)CS2 [Example 47, 6-(2,3-Dihydro-2-oxobenzo[d]oxazol-6-yl)-3-(2-methoxyphenyl)-7H-[1,2,4]triazolo[3,4-b][1,3,4]thiadiazine]
5 | 690 | 324 | 511 | 545 | 120 | 480 | 452 | 569 | COc1ccccc1-c1nnc2n1N=C(c1ccc(C(F)(F)F)cc1)CS2 [Example 48, 6-(4-(Trifluoromethyl)phenyl)-3-(2-methoxyphenyl)-7H-[1,2,4]triazolo[3,4-b][1,3,4]thiadiazine]
6 | 26 | 52 | 32 | 76 | 24 | 30 | 25 | 54 | COc1ccccc1-c1nnc2n1N=C(c1ccc(C)c(N)c1)CS2 [Example 58, 6-(3-Amino-4-methylphenyl)-3-(2-methoxyphenyl)-7H-[1,2,4]triazolo[3,4-b][1,3,4]thiadiazine]
7 | 103 | 149 | 43 | 102 | 98 | 34 | 84 | 59 | COc1ccccc1-c1nnc2n1N=C(c1ccc(Cl)c(N)c1)CS2 [Example 59, 6-(3-Amino-4-chlorophenyl)-3-(2-methoxyphenyl)-7H-[1,2,4]triazolo[3,4-b][1,3,4]thiadiazine]
8 | 269 | 400 | 109 | 330 | 228 | 71 | 150 | 137 | Cc1ccc(C2=Nn3c(nnc3-c3ccccc3C)SC2)cc1N [Example 61, 6-(3-Amino-4-methylphenyl)-3-(2-methylphenyl)-7H-[1,2,4]triazolo[3,4-b][1,3,4]thiadiazine]
9 | 33 | 50 | 24 | 101 | 10 | 18 | 15 | 31 | COc1ccc(Cl)cc1-c1nnc2n1N=C(c1ccc(C)cc1)CS2 [Example 62, 3-(5-Chloro-2-methoxyphenyl)-6-(4-methylphenyl)-7H-[1,2,4]triazolo[3,4-b][1,3,4]thiadiazine]
10 | 371 | 300 | 146 | 261 | 119 | 128 | 232 | 277 | COc1cccc(C2=Nn3c(nnc3-c3ccccc3OC)SC2)c1 [Example 63, 3-(2-Methoxyphenyl)-6-(3-methoxylphenyl)-7H-[1,2,4]triazolo[3,4-b][1,3,4]thiadiazine]
11 | 1510 | 4680 | 522 | 610 | 204 | 561 | 1230 | 635 | COc1cccc(-c2nnc3n2N=C(c2ccc(C)cc2)CS3)c1OC [Example 65, 3-(2,3-Dimethoxyphenyl)-6-(4-methylphenyl)-7H-[1,2,4]triazolo[3,4-b][1,3,4]thiadiazine]
12 | 47 | 127 | 21 | 72 | 24 | 16 | 43 | 29 | COc1cc(-c2nnc3n2N=C(c2ccc(N)cc2)CS3)cc(OC)c1OC [Example 66, 6-(4-Aminophenyl)-3-(3,4,5-trimethoxyphenyl)-7H-[1,2,4]triazolo[3,4-b][1,3,4]thiadiazine]
13 | 2760 | 947 | 636 | 5260 | 144 | 481 | 269 | 1260 | Cc1ccc(C2=Nn3c(nnc3-c3ccccc3F)SC2)cc1 [Example 68, 3-(2-Fluorophenyl)-6-(4-methylphenyl)-7H-[1,2,4]triazolo[3,4-b][1,3,4]thiadiazine]
14 | 50 | 41 | 15 | 42 | 4 | 11 | 10 | 17 | COc1ccc(OC)c(-c2nnc3n2N=C(c2ccc(C)cc2)CS3)c1 [Example 69, 3-(2,5-Dimethoxyphenyl)-6-(4-methylphenyl)-7H-[1,2,4]triazolo[3,4-b][1,3,4]thiadiazine]
15 | 500 | 1010 | 165 | 546 | 144 | 157 | 158 | 205 | Cc1ccc(C2=Nn3c(nnc3-c3ccccc3C)SC2)cc1 [Example 70, 3-(2-Methylphenyl)-6-(4-methylphenyl)-7H-[1,2,4]triazolo[3,4-b][1,3,4]thiadiazine]
16 | 276 | 169 | 70 | 453 | 91 | 65 | 77 | 76 | CSc1ccccc1-c1nnc2n1N=C(c1ccc(C)cc1)CS2 [Example 71, 3-(2-Methylthiophenyl)-6-(4-methylphenyl)-7H-[1,2,4]triazolo[3,4-b][1,3,4]thiadiazine]
17 | 345 | 867 | 203 | 238 | 180 | 136 | 179 | 266 | COc1ccccc1-c1nnc2n1N=C(c1ccc(N)cc1)CS2 [Example 75, 6-(4-Aminophenyl)-3-(2-methoxyphenyl)-7H-[1,2,4]triazolo[3,4-b][1,3,4]thiadiazine]
